This assay deals with T1, GFP-Flag-tagged Gip1 (Gip1-GFPF) in complex with G proteins (Dictyostelium discoideum, UniProt Q55BQ2).
T1 construct: gene DDB_G0271086; full-length Gip1 (1-310) with GFP-Flag tag, expressed in Dictyostelium cells, on anti-Flag beads with co-purified G proteins; Gγ geranylgeranylated at Cys66
The assay is described as follows: competitive dissociation of G proteins from bead-bound Gip1, immunoblot. The format is biochemical. As to conditions: CHAPS buffer pH 7.5, 4 °C, 1 h, 3.5% methanol. Background: In western blotting, separated proteins are transferred to a membrane and probed.

T1 sequence (Q55BQ2 entry or part of it, one chain of several): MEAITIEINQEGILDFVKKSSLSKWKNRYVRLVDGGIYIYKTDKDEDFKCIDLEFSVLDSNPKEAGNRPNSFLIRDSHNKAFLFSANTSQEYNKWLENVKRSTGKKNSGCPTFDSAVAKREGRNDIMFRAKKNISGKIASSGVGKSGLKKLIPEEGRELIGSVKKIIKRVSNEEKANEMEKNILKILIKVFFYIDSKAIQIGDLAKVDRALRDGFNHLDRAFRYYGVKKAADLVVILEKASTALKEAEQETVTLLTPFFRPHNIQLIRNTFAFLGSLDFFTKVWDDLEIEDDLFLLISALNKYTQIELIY

In the case of `CC(C)=CCC/C(C)=C/CC/C(C)=C/CC/C(C)=C/COP(=O)(O)OP(=O)(O)O` [GG-pyroP, geranylgeranyl pyrophosphate], the relative band intensity result (0-100 µM, competitive with geranylgeranylated Gγ) is recorded as “the complex formation was competitively inhibited by the addition of geranylgeranyl pyrophosphate”. As to `CC(C)=CCC/C(C)=C/CC/C(C)=C/COP(=O)(O)OP(=O)(O)O` [farnesyl pyrophosphate], the relative band intensity entry (100 µM) is on record as “Farnesyl pyrophosphate showed slight impairment of the Gip1–G protein complex”.

For the origin of these results see PMC6219514, “Structural basis of Gip1 for cytosolic sequestration of G protein in wide-range chemotaxis” (Nature Communications, 2018).
